Values of other authors as cited in patent US20240408173A1, “SILK FIBROIN-CONTAINING COMPOSITION AND METHODS OF USE THEREOF” (Georgetown University, priority 2017, published 2024).

Water solubility: No
SMILES: FC(F)(F)C(F)(F)C(F)(F)C(F)(F)C(F)(F)C(F)(F)C(F)(F)C(F)(F)Br [PFC, perfluorooctylbromide]
